Source: article PMC3566143, “Pantothenamides Are Potent, On-Target Inhibitors of Plasmodium falciparum Growth When Serum Pantetheinase Is Inactivated” (PLoS ONE, 2013)

Columns and labels:
Albumax II = test: fluorescamine-based pantothenamide hydrolysis assay with Albumax II; type: in vitro ADME, bovine; settings: 200 µM compound, Albumax II 0.6% (w/v), 37°C
Experimental: (§1) Hydrolysis of compound 12 to pantothenate and isobutylamine was measured using a modification of a fluorescence-based assay described previously for the measurement of N-acetyl-1-D-myo-inosityl-2-amino-2-deoxy-α-D-glucopyranoside deacetylase activity, [31]. The assay utilizes fluorescamine (4-phenylspiro-[furan-2(3H),1-phthalan]-3,3′-dione; a non-fluorescent molecule that reacts with primary amines to form a fluorescent product) for the detection of primary amines. Briefly, recombinant human pantetheinase (at a final concentration of 100 ng/mL), Albumax II (at a final concentration 0.6%, w/v), or an equivalent volume of water, was added to solutions (at 37°C) of 100 mM potassium phosphate, pH 7.5, 0.5 mM dithiothreitol, 0.01% (w/v) bovine serum albumin, 0.1% (v/v) DMSO, with or without pantothenamide (at a final concentration of 200 µM). At the appropriate time points, aliquots (30 µL) of the reaction mixtures were removed in duplicate and mixed with 10 µL 20% (v/v) trichloroacetic acid to terminate the reaction. […] The plate was then incubated at 37°C for 10 min before fluorescence was measured using a FLUOstar OPTIMA multidetection microplate reader from BMG LABTECH with excitation and emission wavelengths of 390 and 485 nm, respectively. The fluorescence detected was converted to the corresponding isobutylamine concentration using an isobutylamine standard curve. […]

P. falciparum PanK = test: [14C]pantothenate phosphorylation assay with P. falciparum lysate; type: biochemical, Plasmodium falciparum; settings: 100 µM pantothenamide, 0.2 µM [14C]pantothenate, 10 min
Experimental: To assess the effect of the pantothenamides on pantothenate phosphorylation by P. falciparum PanK, the phosphorylation of [^14C]pantothenate by P. falciparum lysates was measured in the presence and absence of a single concentration of each pantothenamide. P. falciparum lysate was prepared from trophozoite stage parasites “isolated” from their host erythrocyte by treatment with 0.05% (w/v) saponin (essentially as described by Saliba et al.), and washed (five times) in HEPES-buffered saline (125 mM NaCl, 5 mM KCl, 20 mM D-glucose, 25 mM HEPES, 1 mM MgCl2, pH 7.1). Lysates were prepared as described by van Schalkwyk et al., except that 10 mM potassium phosphate, pH 7.4 (rather than 10 mM Tris, pH 7.4), was used to lyse the cells. Aliquots of lysate were stored at −20°C. The concentration of cell lysates was determined from cell counts made using an improved Neubauer hemocytometer.
[^14C]Pantothenate phosphorylation was assayed using the Somogyi reagent essentially as described by Saliba et al., except that pantothenate phosphorylation was terminated by heat denaturation (rather than acid denaturation) of the protein in reaction aliquots. Briefly, P. falciparum lysate was added to solutions (at 37°C) of 50 mM Tris, 5 mM ATP, 5 mM MgCl2, at pH 7.4, containing [^14C]pantothenate (at a final concentration of 0.01 µCi/mL, or 0.2 µM), and a pantothenamide (at a final concentration of 100 µM) or an equivalent volume of solvent. Typically, lysate prepared from 5.4–6.5×10^7 parasites was present in each mL of reaction solution. Zero phosphorylation control reactions were prepared by adding a corresponding volume of 10 mM potassium phosphate instead of parasite lysate. Following a ten minute incubation at 37°C (a period during which pantothenate phosphorylation increased linearly with time in the absence of inhibitors) 200 µL aliquots of the [^14C]pantothenate phosphorylation reactions were transferred in duplicate to microcentrifuge tubes, and immediately incubated at 95°C for 10 min to terminate phosphorylation. Terminated reaction samples were centrifuged at 15 800×g for 10 min to pellet the denatured protein, before two aliquots of each supernatant (typically 80 µL) were transferred to new microcentrifuge tubes. To one aliquot, 500 µL Somogyi reagent was added, and to the other, 500 µL water was added. The samples were processed for determination of phosphorylated [^14C]pantothenate as described previously.

[1] = target: T1, recombinant human pantetheinase (Vanin-1) (Homo sapiens, UniProt O95497); test: fluorescamine-based pantothenamide hydrolysis assay with recombinant pantetheinase; type: in vitro ADME; settings: 200 µM compound, same conditions with water instead of enzyme
T1 construct: purchased Novoprotein Scientific Inc. (Short Hills, New Jersey, USA)
T1 sequence (O95497 22-513): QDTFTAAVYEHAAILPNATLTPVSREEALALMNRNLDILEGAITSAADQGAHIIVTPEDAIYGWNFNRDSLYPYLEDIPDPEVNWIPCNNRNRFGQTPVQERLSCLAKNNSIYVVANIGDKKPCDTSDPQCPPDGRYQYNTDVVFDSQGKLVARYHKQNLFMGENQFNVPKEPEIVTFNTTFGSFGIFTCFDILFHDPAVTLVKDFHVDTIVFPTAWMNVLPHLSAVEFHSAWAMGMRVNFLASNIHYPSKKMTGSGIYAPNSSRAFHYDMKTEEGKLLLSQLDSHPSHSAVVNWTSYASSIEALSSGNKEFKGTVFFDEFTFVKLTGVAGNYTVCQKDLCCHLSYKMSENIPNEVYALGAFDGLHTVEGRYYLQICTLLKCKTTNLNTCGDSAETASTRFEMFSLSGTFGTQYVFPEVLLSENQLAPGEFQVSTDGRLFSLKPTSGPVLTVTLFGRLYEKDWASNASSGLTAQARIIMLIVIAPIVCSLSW
Experimental: as §1

time to completion of hydrolysis (Albumax II): ≤ 24 h
fraction of pantothenamide hydrolyzed during 6 h incubation (Albumax II; 6 h): over one third
hydrolysis in the absence of pantetheinase [1]: not observed
Compound: CC(C)CNC(=O)CCNC(=O)[C@H](O)C(C)(C)CO [Compound 12]
Inhibition of pantothenate phosphorylation at 100 μM (P. falciparum PanK): 95 ± 5%
